Experiments:
[1] = molecular target: T1, human prostaglandin transporter (hPGT) (Homo sapiens, UniProt Q92959); experiment: Timed uptake of tracer 3[H]-prostaglandins into HeLa cells expressing clone 3 (hPGT); type: cell-based; conditions: for 2-minute rank-order of uptakes: 2 minutes, 27° C., tracer 0.6-1.0 nM; for difference between transport rates: 10 and 20 minutes
[2] = molecular target: T1, human prostaglandin transporter (hPGT); experiment: Inhibition of hPGT-mediated tracer PGE2 uptake in transfected HeLa cells; type: cell-based
[3] = test system: rat PGT; conditions: reference 36; cited from earlier work
[4] = test system: rat PGT; experiment: Tracer prostaglandin transport by rat PGT re-expressed in HeLa cells; type: cell-based; conditions: data not shown
[5] = HeLa, 10 min, read-out: percent of the control 10-min tracer PGE2 uptake

CCCCC[C@H](O)/C=C/[C@H]1OC(O)C[C@H](O)[C@@H]1C/C=C\CCCC(=O)O (stereo partly shown) [TxB2]
2-minute rank-order of uptakes [1]: PGE2 >PGE1>PGF2α >PGD2 >TxB2
transport rate relative to PGE2 or PGF2α ([1]; hPGT, FIG. 2): about half that of PGE2 or PGF2α
remaining activity at 0.5 µM [2, 5]: 26.7 ± 0.1%
transport rate relative to PGE2 or PGF2α [3]: about half that of PGE2 or PGF2α

CCCCC[C@H](O)/C=C/[C@@H]1[C@@H](C/C=C\CCCC(=O)O)[C@@H](O)C[C@H]1O [PGF2α]
difference between transport rates [1]: essentially no difference
2-minute rank-order of uptakes [1]: PGE2 >PGE1>PGF2α >PGD2 >TxB2
remaining activity at 0.1 µM [2, 5]: 45 ± 1.3%

CCCCC[C@H](O)/C=C/[C@H]1[C@H](O)CC(=O)[C@@H]1CCCCCCC(=O)O [PGE1]
difference between transport rates [1]: essentially no difference
2-minute rank-order of uptakes [1]: PGE2 >PGE1>PGF2α >PGD2 >TxB2
remaining activity at 0.1 µM [2, 5]: 50.8 ± 3.4%

COc1ccc2c(c1)c(CC(=O)O)c(C)n2C(=O)c1ccc(Cl)cc1 [Indomethacin]
potency as inhibitor of hPGT (in words) [2]: much less effective
remaining activity at 10 µM [2, 5]: 114 ± 3.8%
remaining activity at 100 µM [2, 5]: 82.5 ± 1%

CCCN(CCC)S(=O)(=O)c1ccc(C(=O)O)cc1 [Probenecid]
potency as inhibitor of hPGT (in words) [2]: much less effective
remaining activity at 10 µM [2, 5]: 104 ± 5.2%
remaining activity at 100 µM [2, 5]: 92.8 ± 2%

NS(=O)(=O)c1cc(C(=O)O)c(NCc2ccco2)cc1Cl [Furosemide]
remaining activity at 10 µM [2, 5]: 91.5 ± 3.3%
remaining activity at 100 µM [2, 5]: 63.3 ± 1.7%

CC#CCC(C)[C@H](O)/C=C/[C@@H]1[C@H]2C/C(=C/CCCC(=O)O)C[C@H]2C[C@H]1O (stereo partly shown) [iloprost]
transport above baseline ([1]; 3[H]-iloprost 7.9 nM, data not shown): not transported above baseline

CCCCC[C@H](O)/C=C/[C@H]1[C@H](O)CC(=O)[C@@H]1C/C=C\CCCC(=O)O [PGE2]
difference between transport rates [1]: essentially no difference
2-minute rank-order of uptakes [1]: PGE2 >PGE1>PGF2α >PGD2 >TxB2

CCCCC[C@H](O)/C=C/[C@H]1C(=O)C[C@H](O)[C@@H]1C/C=C\CCCC(=O)O [PGD2]
difference between transport rates [1]: essentially no difference
2-minute rank-order of uptakes [1]: PGE2 >PGE1>PGF2α >PGD2 >TxB2
remaining activity at 0.1 µM [2, 5]: 47.9 ± 0.9%
transport rate of tracer relative to PGE2 [4]: at a rate equivalent to that of PGE2
